Reference: patent US9499496B2, “Inhibitors of respiratory syncytial virus” (University of Kansas, priority 2012, dated 2016)
Values joined by “and” are separate entries in the source; they are usually repeats but may differ in a detail not shown here. Equal values may be shown once. Read-outs that look alike come from different tables or passages of the source. Marks after values point to notes of the source that are not given here.

Key:
[1] = test system: RSV; assay: RSV plaque reduction assay (titer reduction); assay type: cell-based, RSV Long strain; settings: HEp-2 cells; for Plaque Reduction Assay (log reduction) at 10 μM: 10 μM test compound; for Plaque Reduction Assay (log reduction): concentration not given
[2] = test system: RSV; assay: RSV CPE assay (inhibition of RSV-induced cytopathic effect, luminescent cell viability readout); assay type: cell-based, RSV (strain Long); settings: for Selectivity Index (CC50/EC50): antiviral activity over HEp-2 cell cytotoxicity
[3] = physchem; settings: plasma or biological fluid
[4] = in vitro; settings: human
[5] = test system: RSV; assay: Time of addition CPE assay; assay type: cell-based, RSV Long strain; settings: for Change in cell viability with time of addition: addition at time points between 7-24 hours post-infection
Method: Assay Description: HEp-2 cells were plated in 96 well black tissue culture plates at 10,000 cells per well in 80 μl and incubated 24 hours at 37° C., 5% CO2. All cell plating was conducted using a Matrix WellMate™ and cells were maintained at room temperature with stirring during the plating process. Compounds were diluted in media to give a final concentration of 25 μM and added to plates at −1, 0, 1, 4, 6, 20 and 24 hours post-infection (p.i.). The cells were infected with RSV Long strain at an MOI of 3 and the assay plates were incubated for six days at 37° C., 5% CO2 and 90% relative humidity.
The Cell Titer Glo® assay was used to determine viability of the cells. The assay plates were equilibrated to room temperature for 10 minutes and then an equal volume of Cell Titer-Glo reagent (Promega Inc.) was added to each well. Plates were incubated for 10 min at room temperature and luminescence was measured using a multi-label plate reader with an integration time of 0.1 s.
A cell-based assay was used to determine the ability of the probe to inhibit different stages of a single round of viral replication. […] Compounds B and F (diamonds and squares, respectively) are of similar chemical structure. The percent cell viability values at each time point for the respective molecules are compared with that of ribavirin (RBV). […] This sustained efficacy may be due to the inhibition of one or more late virus life cycle steps (post-entry or late-stage infection processes), and this hypothesis is supported by an ability to affect processes later in the viral replication cycle.

[6] = Stability in PBS over 48 h; settings: for Stability in PBS (% parent remaining after 48 h), with acetonitrile: PBS with 50% acetonitrile; for Stability in PBS (% parent remaining after 48 h): no additives, 23° C.
[7] = test system: HEp-2 cells; settings: HEp-2 cell cytotoxicity
[8] = physchem; settings: 23 °C, pH 7.4, aqueous buffer
[9] = test system: vaccinia; assay type: cell-based
[10] = test system: dengue viruses; assay type: cell-based
[11] = test system: Calcium Channel L-Type, Dihydropyridine; assay: Ricerca LeadProfiling screen; assay type: binding; settings: 10 μM, duplicate, rat
[12] = test system: Venezuelan equine encephalitis; assay type: cell-based
[13] = test system: Calcium Channel L-Type, Benzothiazepine; assay: Ricerca LeadProfiling screen; assay type: binding; settings: 10 μM, duplicate, rat
[14] = test system: influenza A; assay type: cell-based
[15] = test system: Ricerca LeadProfiling screen made up of 67 assays; assay: Ricerca LeadProfiling screen, all other targets of the 67 assays; assay type: binding; settings: 10 μM, duplicate
[16] = in vitro; settings: PAMPA
[17] = human respiratory syncytial virus, HEp-2 cells, RSV-induced CPE, read-out: CPE Assay EC50

Compound	Plaque Reduction Assay (log reduction) at 10 μM [1]	Plaque Reduction Assay (log reduction) [1]	Selectivity Index (CC50/EC50) [2]	EC50 [2, 17] [µM]	solubility [3]	CC50 at 6 days ([4]; CC50, HEp-2 cell cytotoxicity) [µM]	Change in cell viability with time of addition [5]	solubility [8]	also measured
CCc1ccc(Cn2c(=O)n(Cc3ccc(C(=O)NCCCOC)cc3)c(=O)c3ccccc32)cc1 [Compound D, 4-((1-(4-ethylbenzyl)-2,4-dioxo-1,2-dihydroquinazolin-3(4H)-yl)methyl)-N-(3-methoxypropyl)benzamide]	5.90 log reduction	5.90 log reduction	94.9 and 94.5	1 ± 0.05	1.5 µg/mL and 3.09 µM	94.9 ± 3.75	–	–	–
NC(=O)c1ncn([C@@H]2O[C@H](CO)[C@@H](O)[C@H]2O)n1 [ribavirin, reference compound]	2.47 log reduction	–	–	28.4	–	–	–	–	CC50 at 6 days [4]: 114 ± 38.5 µM; Protection of cells from RSV-induced CPE ([5]; added up to 7 hours post-infection): approximately 100%
COCCCNC(=O)c1ccc(Cn2c(=O)c3ccccc3n(Cc3ccc([N+](=O)[O-])cc3)c2=O)cc1 [Compound B, N-(3-methoxypropyl)-4-((1-(4-nitrobenzyl)-2,4-dioxo-1,2-dihydroquinazolin-3(4H)-yl)methyl)benzamide]	>5.56 log reduction	>5.56^a log reduction	–	0.57 ± 0.014	–	128 ± 4.24	does not result in a dramatic change in cell viability	–	EC50 ([2]; human respiratory syncytial virus, repeat of the RSV CPE assay, read-out: RSV CPE assay, repeated): 0.2 µM; Stability in PBS (% parent remaining after 48 h), with acetonitrile [6]: 94.9% (with; Stability in PBS (% parent remaining after 48 h) [6]: 83.4% (PBS);; CC50 [7]: > 128 µM
COCCCNC(=O)c1ccc(Cn2c(=O)c3ccccc3n(Cc3ccc(Br)cc3)c2=O)cc1 [Compound C, 4-((1-(4-bromobenzyl)-2,4-dioxo-1,2-dihydroquinazolin-3(4H)-yl)methyl)-N-(3-methoxypropyl)benzamide]	4.07 log reduction	4.07 log reduction	118.9	0.85 ± 0.15	2.7 µg/mL and 5.03 µM	98.9 ± 8.7	–	0.31 µg/mL and 0.58 µM	Stability in PBS (% parent remaining after 48 h), with acetonitrile [6]: 100% (with; Stability in PBS (% parent remaining after 48 h) [6]: 57.5% (PBS);
COCCCNC(=O)c1ccc(Cn2c(=O)c3ccccc3n(Cc3ccc(C)cc3)c2=O)cc1 [hit compound, 4-((1-(4-methylbenzyl)-2,4-dioxo-1,2-dihydroquinazolin-3(4H)-yl)methyl)-N-(3-methoxypropyl)benzamide]	–	4.15 log reduction	–	2.14	–	59.5	–	–	–
COCCCNC(=O)c1ccc(Cn2c(=O)c3ccccc3n(Cc3ccc(C(C)C)cc3)c2=O)cc1 [Compound A, 4-((1-(4-isopropylbenzyl)-2,4-dioxo-1,2-dihydroquinazolin-3(4H)-yl)methyl)-N-(3-methoxypropyl)benzamide]	6.7 log reduction and 6.70 log reduction	6.70 log reduction	–	–	–	> 200	does not result in a dramatic change in cell viability	–	Efficacy in inhibiting vaccinia [9]: no efficacy; Efficacy in inhibiting dengue viruses [10]: no efficacy; EC50 ([2]; human respiratory syncytial virus, read-out: RSV CPE assay, repeated, repeat of the RSV CPE assay): 0.34 µM; EC50 ([2]; read-out: CPE Assay EC50, HEp-2 cells, RSV-induced CPE): 0.81 µM; Percent Inhibition [11]: 70%; Efficacy in inhibiting Venezuelan equine encephalitis virus [12]: no efficacy; Percent Inhibition [13]: 52%; Efficacy in inhibiting influenza A [14]: no efficacy; Inhibition, all other targets [15]: below 34%; Latest effective time of addition ([5]; single round of viral replication, compound added −1 to 24 h post-infection): > 24 hours post-infection
CN(C)c1ccc(Cn2c(=O)n(Cc3ccc(C(=O)NCC4COC4)cc3)c(=O)c3ccccc32)cc1 [Compound E, 4-((1-(4-(dimethylamino)benzyl)-2,4-dioxo-1,2-dihydroquinazolin-3(4H)-yl)methyl)-N-(oxetan-3-ylmethyl)benzamide]	>6.18 log reduction	>6.18 log reduction	41.8	1.07 ± 0.22	9.2 µg/mL and 18.4 µM	~50	–	5.6 µg/mL and 11.2 µM	Plaque Reduction Assay (log reduction) ([1]; listed as FIG. 5, entry 7): > 6 log reduction; CC50 [7]: 44.7 ± 7.22 µM
CNC(=C[N+](=O)[O-])NCCSCc1ccc(CN(C)C)o1 [Ranitidine]	–	–	–	–	–	–	–	–	Papp [16]: < 10 ×10⁻⁶ cm/s; Papp ([16]; pH 7.4): < 10 ×10⁻⁶ cm/s
Cc1ccc(Cn2c(=O)n(Cc3ccc(C(=O)NCC4COC4)cc3)c(=O)c3ccccc32)cc1 [Compound F, 4-((1-(4-methylbenzyl)-2,4-dioxo-1,2-dihydroquinazolin-3(4H)-yl)methyl)-N-(oxetan-3-ylmethyl)benzamide]	5.10 log reduction	5.1 log reduction	–	0.71 ± 0.13	4.5 µg/mL and 9.58 µM	–	does not result in a dramatic change in cell viability	4.5 µg/mL and 0.75 µM	EC50 ([2]; human respiratory syncytial virus, HEp-2 cells, read-out: CPE EC50 (potency) as given): ~0.7 µM
